Our source for the Activity and inhibition values is ChEMBL document CHEMBL4364299, “Discovery of a Potent Kelch-Like ECH-Associated Protein 1-Nuclear Factor Erythroid 2-Related Factor 2 (Keap1-Nrf2) Protein-Protein Interaction Inhibitor with Natural Proline Structure as a Cytoprotective Agent against Acetaminophen-Induced Hepatotoxicity” (J Med Chem, 2019).

Active and inactive are the calls of the source. The calls are words filed in the database; no cut-off is given here.

Assay [1] has as its target T1, Nuclear factor erythroid 2-related factor 2 (Homo sapiens) (UniProt Q16236).
T1 sequence (whole entry): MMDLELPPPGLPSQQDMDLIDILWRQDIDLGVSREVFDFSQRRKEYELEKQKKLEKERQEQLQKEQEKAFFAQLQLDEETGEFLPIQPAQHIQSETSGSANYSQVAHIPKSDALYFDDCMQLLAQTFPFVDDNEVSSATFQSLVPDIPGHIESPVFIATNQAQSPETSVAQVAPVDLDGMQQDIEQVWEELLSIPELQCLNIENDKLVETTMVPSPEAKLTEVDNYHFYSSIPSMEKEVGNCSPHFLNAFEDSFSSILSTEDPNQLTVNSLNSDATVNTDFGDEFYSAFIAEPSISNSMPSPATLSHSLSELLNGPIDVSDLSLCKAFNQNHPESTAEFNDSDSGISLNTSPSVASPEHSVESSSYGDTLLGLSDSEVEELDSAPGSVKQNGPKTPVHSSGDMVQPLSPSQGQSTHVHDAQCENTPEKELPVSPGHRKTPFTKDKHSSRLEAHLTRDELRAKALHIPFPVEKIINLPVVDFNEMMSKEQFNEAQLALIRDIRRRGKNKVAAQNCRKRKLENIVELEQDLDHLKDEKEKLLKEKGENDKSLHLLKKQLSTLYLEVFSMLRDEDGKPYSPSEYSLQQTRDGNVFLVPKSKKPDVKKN
Briefly: Activation of Nrf2 in human L02 cells assessed as increase in GCLM mRNA expression measured after 12 hrs by trizol reagent based qRT-PCR analysis. It counts as cell-based.

The target in assay [2] is T1, Nuclear factor erythroid 2-related factor 2 (Homo sapiens). Briefly: Activation of Nrf2 in human L02 cells assessed as increase in NEFL2L mRNA expression at 10 uM measured after 8 to 24 hrs by trizol reagent based qRT-PCR analysis. It counts as cell-based.
Assay [3] has the same target. Briefly: Activation of Nrf2 in human L02 cells assessed as increase in NQO-1 mRNA expression at 10 uM measured after 8 to 24 hrs by trizol reagent based qRT-PCR analysis. It counts as cell-based.
Assay [4] has the same target. Briefly: Activation of Nrf2 in human L02 cells assessed as increase in GCLM expression measured after 12 hrs by Western blot analysis. It counts as cell-based.
Assay [5] shares this target. Put plainly: Activation of Nrf2 in human L02 cells assessed as increase in NEFL2L expression at 10 uM measured after 4 to 72 hrs hrs by Western blot analysis. It counts as cell-based.
For assay [6], the system named is L02. Put plainly: Upregulation of HO-1 expression in human L02 cells harboring Nrf2 siRNA at 10 uM measured after 10 hrs by Western blot analysis. It counts as functional, cell-based.
The subject of assay [7] is Mus musculus. Put plainly: Protection against APAP-induced hepatotoxicity in C57BL/6 mouse assessed as decrease in disease score at 10 to 40 mg/kg, ip treated 2 hrs prior to 22 hrs starvation followed by APAP challenge and measured after 6 hrs by H and E staining-based light microscopic analysis. It counts as functional, organism-based.
The test system of assay [8] is Mus musculus. Briefly: Protection against APAP-induced hepatotoxicity in C57BL/6 mouse assessed as decrease in ALT level at 10 mg/kg, ip treated 2 hrs prior to 22 hrs starvation followed by APAP challenge and measured after 6 hrs. It counts as functional, organism-based.
Assay [9] concerns Mus musculus. Put plainly: Protection against APAP-induced hepatotoxicity in C57BL/6 mouse assessed as decrease in ALP level at 10 mg/kg, ip treated 2 hrs prior to 22 hrs starvation followed by APAP challenge and measured after 6 hrs. It counts as functional, organism-based.
For assay [10], the system named is Mus musculus. Briefly: Protection against APAP-induced hepatotoxicity in C57BL/6 mouse assessed as decrease in total bilirubin level at 10 mg/kg, ip treated 2 hrs prior to 22 hrs starvation followed by APAP challenge and measured after 6 hrs. It counts as functional, organism-based.
The test system of assay [11] is Mus musculus. Put plainly: Protection against APAP-induced hepatotoxicity in C57BL/6 mouse assessed as decrease in IL1beta production at 10 mg/kg, ip treated 2 hrs prior to 22 hrs starvation followed by APAP challenge and measured after 6 hrs. It counts as functional, organism-based.
Assay [12] deals with L02. Particulars: Homo sapiens, 5 to 10 uM.
Description: Cytoprotective activity against APAP-induced hepatotoxicity in human L02 cells assessed as inhibition of IL6 production at 5 to 10 uM preincubated for 12 hrs followed by APAP stimulation and measured after 24 hrs by ELISA
Assay [13] concerns L02. Particulars: Homo sapiens, 5 to 10 uM. This is another data set of the same source.
Description: Cytoprotective activity against APAP-induced hepatotoxicity in human L02 cells assessed as inhibition of TNFalpha production at 5 to 10 uM preincubated for 12 hrs followed by APAP stimulation and measured after 24 hrs by ELISA

With `COc1ccc(S(=O)(=O)N(CC(=O)O)c2ccc(N3CCC[C@H]3C(=O)O)c3ccccc23)cc1`, the Activity result in [1] and in [4] was “Dose-dependent effect” in each case. Also, the result (in assay [2]; in assay [3]; in [5]; with Mus musculus [7]; in the assay on Mus musculus [8]; in the assay with Mus musculus [9]) was Active. The outcome in the assay with Mus musculus [10] and in the assay on Mus musculus [11] was Active. Also, in the assay with L02 [6], the outcome was inactive. Moreover, the inhibition result with L02 [12] and with L02 [13] was “Active” each time.
